Drawing on US11111232B2, “Substituted cyclobutylpyridine and cyclobutylpyrimidine compounds as indoleamine 2,3-dioxygenase (IDO) inhibitors” (MERCK SHARP & DOHME CORP., priority 2017, dated 2021), this text covers IC50 for 25 molecules.

One assay concerns the target IDO1 (Homo sapiens, UniProt P14902). Nature of the assay: IDO1 cellular assay in Hela cells stimulated with IFNγ. It counts as cell-based. The conditions noted are these: IFNγ 100 ng/mL, 300 uM L-tryptophan, about 48 hours, fluorescence readout. Here is the method:
IDO1 Cellular Assay in Hela Cells Stimulated with IFNγ
Hela cells were cultured in complete Hela culture medium (90% EMEM, 10% heat-inactivated fetal bovine serum) and expanded to about 1×10^9 cells. The cells were then collected and frozen down at 1×10^7 cells/vial in 1 mL frozen medium (90% complete Hela culture medium, 10% DMSO)
Compounds to be tested were serially diluted in ten 3-fold steps in DMSO starting from 10 mM DMSO stocks in Echo low volume plate(s).
Frozen Hela cells were thawed and transferred into Hela assay medium (99% complete Hela culture medium, 1% Pen/Strep) with 20 mL medium/vial of cells. The cells were spun down at 250 g in a table top centrifuge for 5 min and suspended in same volume of Hela assay medium. […] Sterile L-tryptophan were added to the cells with final concentration of 300 uM L-tryptophan. A small aliquot (2 mL/plate) of Hela cells were set aside and were not treated with IFNγ, to serve as the Max-E control.
Hela cells with and without IFNγ were dispensed to the respective wells of 384-well assay plates containing the compounds. The plates were incubated for about 48 hours at a 37° C., 5% CO2 incubator. Afterwards, […] of 0.5 M methyl isonipecotate in dimethyl sulfoxide were added into each well and the plates were sealed and incubated at 37° C. without CO2 overnight. The plates were centrifuged for 1 min at 200×g. The resulting fluorescence was measured in a Spectramax plate reader (Molecular Devices) with a 400 nm excitation filter and a 510 nm emission filter.
Potencies were calculated by linear least squares fit to the four parameter logistic IC50 equation.

In the next assay the target is T1, TDO (Homo sapiens, UniProt P48775).
T1 construct: endogenous in cells; host or cells: SW48 cells (A2780 cells as low-TDO control)
Briefly: TDO cellular assay in frozen SW48 cells. The assay is classed as cell-based. The settings on record: 300 uM L-tryptophan, about 48 hours, fluorescence readout. Here is the method: TDO Cellular Assay in Frozen SW48 Cells
SW48 cells were cultured in complete RPMI culture medium (90% RPMI, 10% heat-inactivated fetal bovine serum).
Compounds to be tested were serially diluted in ten 3-fold steps in DMSO starting from 10 mM DMSO stocks in Echo low volume plate(s). […] The cells were spun down at 350 g in a table top centrifuge for 5 minutes and suspended in same volume of RPMI assay medium. […] Sterile L-tryptophan (Sigma, Cat #T0254) was added to the cells with final concentration of 300 uM.
SW48 and A2780 cells were dispensed to the respective wells of 384-well assay plates containing the compounds. The plates were incubated for about 48 hours at a 37° C., 5% CO2 incubator. Afterwards, 12 μL of 0.5 M ethyl isonipecotate (Sigma Aldrich, Cat #E33505) in dimethyl sulfoxide were added into each well and the plates were sealed and incubated at 37° C. without CO2 overnight. The plates were centrifuged for 1 minute at 200×g. The resulting fluorescence was measured in a Spectramax plate reader (Molecular Devices) with a 400 nm excitation filter and a 510 nm emission filter.
The fluorescence intensity of each well was corrected for the background observed in wells with A2780 cells and was expressed as a fraction of the intensity observed in wells of SW48 cells and DMSO only. Potencies were calculated by linear least squares fit to the four parameter logistic IC50 equation.

Structures are written as SMILES. A value given as a limit tells only on which side of the number the result lay.

Chain of IDO1 (P14902 whole entry): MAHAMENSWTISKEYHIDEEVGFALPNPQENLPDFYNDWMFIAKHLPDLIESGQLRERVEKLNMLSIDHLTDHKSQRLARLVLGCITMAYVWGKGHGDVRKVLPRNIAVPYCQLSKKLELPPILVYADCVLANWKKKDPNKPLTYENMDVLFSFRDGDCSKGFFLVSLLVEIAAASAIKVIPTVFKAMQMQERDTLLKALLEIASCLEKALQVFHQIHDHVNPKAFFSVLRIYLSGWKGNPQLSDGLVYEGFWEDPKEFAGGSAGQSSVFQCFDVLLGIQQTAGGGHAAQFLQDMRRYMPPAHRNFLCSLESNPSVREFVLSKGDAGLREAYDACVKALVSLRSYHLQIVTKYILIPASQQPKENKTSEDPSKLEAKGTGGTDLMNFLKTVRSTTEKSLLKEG
T1 sequence (P48775 whole entry): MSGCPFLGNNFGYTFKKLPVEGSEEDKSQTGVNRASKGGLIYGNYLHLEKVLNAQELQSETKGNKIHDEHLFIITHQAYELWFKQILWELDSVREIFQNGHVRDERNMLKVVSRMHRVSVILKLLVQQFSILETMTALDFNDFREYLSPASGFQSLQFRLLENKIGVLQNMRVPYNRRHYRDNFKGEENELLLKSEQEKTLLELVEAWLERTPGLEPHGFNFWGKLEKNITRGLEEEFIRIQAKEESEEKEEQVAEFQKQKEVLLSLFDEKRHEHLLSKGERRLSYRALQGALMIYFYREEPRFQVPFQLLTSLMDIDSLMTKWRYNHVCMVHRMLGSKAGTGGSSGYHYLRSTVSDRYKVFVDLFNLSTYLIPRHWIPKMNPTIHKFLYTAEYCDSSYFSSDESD

Take `O=C(NC1(c2ccc(NC(=O)c3nccs3)cn2)CCC1)c1ccc(Cl)nc1` [Example 40, 6-chloro-N-(1-{5-[(1,3-thiazole-2-carbonyl)amino]pyridin-2-yl}cyclobutyl)pyridine-3-carboxamide]: the IC50 (in general, the concentration that gives 50% inhibition) is 280 nM on IDO1 and no less than 10000 nM against TDO.
As for `O=C(Nc1ccc(C2(C(=O)Nc3ccc(F)cn3)CCC2)cn1)c1cncc(Cl)c1` [Example 34, 5-chloro-N-(5-{1-[(5-fluoropyridin-2-yl)carbamoyl]cyclobutyl}pyridin-2-yl)pyridine-3-carboxamide], the values for the IC50 at IDO1 and on TDO were 104 nM and no less than 10000 nM, respectively.
For `O=C(Nc1ccc(C2(C(=O)Nc3ccc(F)cc3)CCC2)cn1)N1CCCC1` [Example 31, N-(5-{1-[(4-fluorophenyl)carbamoyl]cyclobutyl}pyridin-2-yl)pyrrolidine-1-carboxamide] the same measures were 145 nM and no less than 10000 nM.
For `O=C(NC1CCCCC1)c1ccc(C2(C(=O)Nc3ccc(F)cc3)CCC2)cn1` [Example 35, N-cyclohexyl-5-(1-((4-fluorophenyl)carbamoyl)cyclobutyl)picolinamide] the same measures were 473 nM and no less than 10000 nM.
Turning to `O=C(Nc1ccc(C2(C(=O)NC3CCC(F)(F)CC3)CCC2)cn1)c1cncc(Cl)c1` [Example 33, 5-Chloro-N-(5-(1-((4,4-difluorocyclohexyl)carbamoyl)cyclobutyl)pyridin-2-yl)nicotinamide], the half-inhibitory concentration (IC50) at IDO1 is 1600 nM; against TDO, no less than 10000 nM.
Regarding `N#Cc1cccc(C(=O)Nc2ccc(C3(NC(=O)c4ccc(Cl)nc4)CCC3)nc2)c1` [Example 48, 6-chloro-N-(1-{5-[(3-cyanobenzene-1-carbonyl)amino]pyridin-2-yl}cyclobutyl)pyridine-3-carboxamide], the IC50 against IDO1 was 35 nM; on TDO it was no less than 10000 nM.
`N#Cc1cncc(C(=O)Nc2ccc(C3(NC(=O)c4ccc(Cl)nc4)CCC3)nc2)c1` [Example 49, N-(6-{1-[(6-chloropyridine-3-carbonyl)amino]cyclobutyl}pyridin-3-yl)-5-cyanopyridine-3-carboxamide]: the IC50 against IDO1 was 1210 nM; against TDO, no less than 10000 nM.
Regarding `O=C(NC1(c2ccc(NC(=O)c3ncco3)cn2)CCC1)c1ccc(Cl)nc1` [Example 39, N-(6-(1-(6-chloronicotinamido)cyclobutyl)pyridin-3-yl)oxazole-2-carboxamide], the IC50 is 921 nM on IDO1 and no less than 10000 nM against TDO.
On to `CCCNC(=O)C1(c2ccc(NC(=O)c3cccc(Cl)c3)nc2)CCC1` [Example 4, 3-chloro-N-{5-[1-(propylcarbamoyl)cyclobutyl]pyridin-2-yl}benzamide], for which the IC50 against IDO1 is 151 nM; on TDO it was no less than 10000 nM.
For `O=C(Nc1ccc(C2(C(=O)Nc3ccc(F)cc3)CCC2)cn1)c1cncc(F)c1` [Example 28, 5-fluoro-N-(5-{1-[(4-fluorophenyl)carbamoyl]cyclobutyl}pyridin-2-yl)pyridine-3-carboxamide] the same measures were 30 nM and no less than 10000 nM.
On to `N#Cc1ccc(C(=O)Nc2ccc(C3(NC(=O)c4ccc(Cl)nc4)CCC3)nc2)cc1` [Example 47, 6-chloro-N-(1-{5-[(4-cyanobenzene-1-carbonyl)amino]pyridin-2-yl}cyclobutyl)pyridine-3-carboxamide], for which the half-inhibitory concentration (IC50) against IDO1 is 2000 nM; against TDO it was no less than 10000 nM.
In the case of `N#C[C@@H]1CCC[C@@H](C(=O)Nc2ccc(C3(C(=O)Nc4ccc(F)cc4)CCC3)cn2)C1` [Example 13, (1R,3R)-3-cyano-N-(5-{1-[(4-fluorophenyl)carbamoyl]cyclobutyl}pyridin-2-yl)cyclohexane-1-carboxamide], the 50% inhibitory concentration (IC50) on IDO1 was 236 nM; against TDO, no less than 10000 nM.
As for `O=C(Nc1ccc(C2(NC(=O)c3ccc(Cl)nc3)CCC2)nc1)c1ccnc(Cl)c1` [Example 43, 6-chloro-N-(1-{5-[(2-chloropyridine-4-carbonyl)amino]pyridin-2-yl}cyclobutyl)pyridine-3-carboxamide], the IC50 is 377 nM on IDO1 and no less than 10000 nM against TDO.
On to `Cc1cc(C(=O)Nc2ccc(C3(NC(=O)c4ccc(Cl)nc4)CCC3)nc2)ccn1` [Example 46, 6-chloro-N-(1-{5-[(2-methylpyridine-4-carbonyl)amino]pyridin-2-yl}cyclobutyl)pyridine-3-carboxamide], for which the results for the IC50 on IDO1 and on TDO were 1060 nM and no less than 10000 nM, respectively.
In the same order, the values of `O=C(NC1(c2ccc(NC(=O)c3ncccn3)cn2)CCC1)c1ccc(Cl)nc1` [Example 50, N-(6-{1-[(6-chloropyridine-3-carbonyl)amino]cyclobutyl}pyridin-3-yl)pyrimidine-2-carboxamide] are 1700 nM and no less than 10000 nM.
Take `O=C(Nc1ccc(C2(C(=O)Nc3ccc(F)cc3)CCC2)cn1)c1cc(Cl)ccn1` [Example 26, 4-chloro-N-(5-{1-[(4-fluorophenyl)carbamoyl]cyclobutyl}pyridin-2-yl)pyridine-2-carboxamide]: the concentration for half-maximal inhibition (IC50) at IDO1 is 13 nM; at TDO, no less than 10000 nM.
`O=C(Nc1ccc(C2(C(=O)Nc3ccc(F)nc3)CCC2)cn1)c1cccc(Cl)n1` [Example 6, 6-chloro-N-(5-{1-[(6-fluoropyridin-3-yl)carbamoyl]cyclobutyl}pyridin-2-yl)pyridine-2-carboxamide]: the results for the half-inhibitory concentration (IC50) against IDO1 and at TDO were 94 nM and no less than 10000 nM, respectively.
On to `O=C(Nc1ccc(C2(C(=O)Nc3ccc(F)cc3)CCC2)cn1)c1cc(Cl)ccc1F` [Example 16, 5-chloro-2-fluoro-N-(5-{1-[(4-fluorophenyl)carbamoyl]cyclobutyl}pyridin-2-yl)benzamide], for which the figures for the IC50 on IDO1 and at TDO were 14 nM and no less than 10000 nM, respectively.
For `O=C(Nc1ccc(C2(C(=O)NCCC(F)(F)F)CCC2)cn1)c1cccc(Cl)c1` [Example 3, 3-chloro-N-(5-{1-[(3,3,3-trifluoropropyl)carbamoyl]cyclobutyl}pyridin-2-yl)benzamide] the same measures were 3 nM and no less than 10000 nM.
`O=C(Nc1ccc(C2(C(=O)Nc3ccc(F)cc3)CCC2)cn1)c1c(F)ccc(Cl)c1F` [Example 21, 3-chloro-2,6-difluoro-N-(5-{1-[(4-fluorophenyl)carbamoyl]cyclobutyl}pyridin-2-yl)benzamide]: the IC50 was 94 nM on IDO1 and no less than 10000 nM on TDO.
Turning to `Cc1cccc(C(=O)Nc2ccc(C3(C(=O)Nc4ccc(F)nc4)CCC3)cn2)n1` [Example 8, N-(5-{1-[(6-fluoropyridin-3-yl)carbamoyl]cyclobutyl}pyridin-2-yl)-6-methylpyridine-2-carboxamide], the IC50 is 43 nM against IDO1 and no less than 10000 nM at TDO.
In the same order, the values of `O=C(CCC1CC1)Nc1ccc(C2(C(=O)Nc3ccc(F)nc3)CCC2)cn1` [Example 12, 1-{6-[(3-cyclopropylpropanoyl)amino]pyridin-3-yl}-N-(6-fluoropyridin-3-yl)cyclobutane-1-carboxamide] are 227 nM and no less than 10000 nM.
As for `O=C(Nc1ccc(C2(NC(=O)c3ccc(Cl)nc3)CCC2)nc1)c1cccc(F)c1` [Example 51, 6-chloro-N-(1-{5-[(3-fluorobenzene-1-carbonyl)amino]pyridin-2-yl}cyclobutyl)pyridine-3-carboxamide], the IC50 against IDO1 was 20 nM; at TDO, no less than 10000 nM.
As for `O=C(Nc1ccc(C2(NC(=O)c3ccc(Cl)nc3)CCC2)nc1)c1cncc(Cl)c1` [Example 44, 5-chloro-N-(6-{1-[(6-chloropyridine-3-carbonyl)amino]cyclobutyl}pyridin-3-yl)pyridine-3-carboxamide], the half-maximal inhibitory concentration (IC50) at IDO1 is 131 nM; at TDO it was no less than 10000 nM.
`N#Cc1cccc(C(=O)Nc2ccc(C3(C(=O)Nc4ccc(F)cc4)CCC3)nc2O)c1` [Example 54, 3-cyano-N-(6-(1-((4-fluorophenyl)carbamoyl)cyclobutyl)-2-hydroxypyridin-3-yl)benzamide] gave a 50% inhibitory concentration (IC50) on IDO1 of 540 nM.
